According to ChEMBL document CHEMBL4811284, “Tellurides bearing benzensulfonamide as carbonic anhydrase inhibitors with potent antitumor activity” (Bioorg Med Chem Lett, 2021):

Tests used:
MDA-MB-231 [1] = assay: Cytotoxicity against human MDA-MB-231 cells assessed as cell viability under hypoxia conditions at 10 uM measured after 48 hrs relative to control; format: functional
Carbonic anhydrase 9 = Carbonic anhydrase 9 (Homo sapiens, UniProt Q16790); assay: Inhibition of recombinant human CA9 preincubated for 15 mins by measured for 10 to 100 secs by phenol red dye based stopped flow CO2 hydration assay
MDA-MB-231 [2] = assay: Cytotoxicity against human MDA-MB-231 cells assessed as cell killing at 1 uM measured under normoxic condition after 48 hrs relative to control; format: functional
MDA-MB-231 [3] = assay: Cytotoxicity against human MDA-MB-231 cells assessed as cell viability at 10 uM measured under normoxic condition after 48 hrs relative to control; format: functional; conditions: read-out: Activity
MDA-MB-231 [4] = assay: Cytotoxicity against human MDA-MB-231 cells assessed as cell viability under hypoxia conditions at 1 uM measured after 48 hrs relative to control; format: functional
MDA-MB-231 [5] = assay: Cytotoxicity against human MDA-MB-231 cells assessed as cell viability at 1 uM measured under normoxic condition after 48 hrs relative to control; format: functional; conditions: read-out: Activity
MDA-MB-231 [6] = assay: Cytotoxicity against human MDA-MB-231 cells assessed as cell killing under hypoxia conditions at 1 uM measured after 48 hrs relative to control; format: functional
MDA-MB-231 [7] = assay: Cytotoxicity against human MDA-MB-231 cells assessed as cell killing under hypoxia conditions at 10 uM measured after 48 hrs relative to control; format: functional

In the case of `NS(=O)(=O)c1ccc(C[Te]c2ccccc2)cc1`, the Activity (MDA-MB-231 [1]) is reported as 13%, the Ki (Carbonic anhydrase 9) is reported as 2.4 nM and the Activity (MDA-MB-231 [2]) is reported as 90%. It also gave a viability at 10 µM (MDA-MB-231 [3]) of 5% and an Activity (MDA-MB-231 [4]) of 16%.

Work on `Cc1ccc([Te]Cc2ccc(S(N)(=O)=O)cc2)cc1` yielded a Ki (Carbonic anhydrase 9) of 2.2 nM.

`COc1cc([Te]Cc2ccc(S(N)(=O)=O)cc2)cc(OC)c1OC` gave a Ki (Carbonic anhydrase 9) of 2.4 nM, a viability at 1 µM (MDA-MB-231 [5]) of 18% and an Activity (MDA-MB-231 [6]) of 65%. For the same compound, the viability at 10 µM (MDA-MB-231 [3]) was 3% and the Activity (MDA-MB-231 [7]) was 85%.

`NS(=O)(=O)c1ccc(C[Te]c2ccc3ccccc3c2)cc1` gave a Ki (Carbonic anhydrase 9) of 2.9 nM.

Compound `Cc1ccccc1[Te]Cc1ccc(S(N)(=O)=O)cc1` has a Ki (Carbonic anhydrase 9) of 2.6 nM.

`COc1ccc([Te]Cc2ccc(S(N)(=O)=O)cc2)cc1` gave a Ki (Carbonic anhydrase 9) of 2.6 nM.

`Cc1cccc(C)c1[Te]Cc1ccc(S(N)(=O)=O)cc1` showed a Ki (Carbonic anhydrase 9) of 2.5 nM.
